Source: patent US11945812B2, “Annulated 2-amino-3-cyano thiophenes and derivatives for the treatment of cancer” (Boehringer Ingelheim International GmbH, priority 2020, dated 2024)
Read-outs that look alike come from different tables or passages of the source.

Tests used:
[1] = target: Ba/F3 cells bearing a KRAS G12C mutation (Homo sapiens, UniProt P01116, G12C, cells depend on it); test: Ba/F3 cell model proliferation assay (AlamarBlue, 72 h); format: cell-based
Protocol: Ba/F3 Cell Model Generation and Proliferation Assay
Plasmids containing KRASG12 mutants were obtained from GeneScript. To generate KRASG12-dependent Ba/F3 models, Ba/F3 cells were transduced with retroviruses containing vectors that harbor KRASG12 isoforms. Platinum-E cells (Cell Biolabs) were used for retrovirus packaging. Retrovirus was added to Ba/F3 cells. To ensure infection, 4 μg/mL polybrene was added and cells were spinfected. […] Cells with an infection efficiency of 10% to 20% were further cultivated and puromycin selection with 1 μg/mL was initiated. As a control, parental Ba/F3 cells were used to show selection status. Selection was considered successful when parental Ba/F3 cells cultures died. To evaluate the transforming potential of KRASG12 mutations, the growth medium was no longer supplemented with IL-3. Ba/F3 cells harboring the empty vector were used as a control. Approximately ten days before conducting the experiments, puromycin was left out.
All treatments were performed in technical duplicates. The assay is run using a fully automated robotic system. Treated cells were incubated for 72 h at 37° C. with 5% CO2. AlamarBlue™ (ThermoFisher), a viability stain, was added and fluorescence measured in the PerkinElmer Envision HTS Multilabel Reader.

[2] = target: T1, KRAS G12C::SOS1 protein-protein interaction (Homo sapiens, UniProt P01116, C118S/C51S/C80L/G12C); test: KRAS::SOS1 AlphaScreen binding assay; details: KRAS G12C::SOS1 AlphaScreen
T1 construct: His6 (N); host or cells: E. coli
Excerpt: KRAS::SOS1 AlphaScreen Binding Assay
Reagents: • GST-tagged SOS1 (564_1049_GST_TEV_ECO) produced in-house • GST-TEV-SOS1 (564-1049) is purchased from Viva Biotech Ltd. • The expression construct of KRAS G12C (amino acids 1-169 of reference sequence P01116-2 (uniprot), with additional mutations: C51S, C80L, and C118S) containing a C-terminal avi-tag was obtained by gene synthesis (GeneArt, Thermo Fisher) in donor vector (pDONR-221) and transferred by recombinant cloning into pDEST17 vector bearing an N-terminal His6-tag. The protein was expressed in E. coli and the purified protein was biotinylated with the E. coli biotin ligase (BirA) before usage. • GDP (Sigma Cat No G7127) • AlphaLISA Glutathione Acceptor Beads (PerkinElmer, Cat No AL109) • AlphaScreen Streptavidin Donor Beads (PerkinElmer Cat No 6760002) • Assay plates: Proxiplate-384 PLUS, white (PerkinElmer, Cat No 6008289)
Assay Buffer: • 1×PBS • 0.1% BSA • 0.05% Tween 20
7.5 nM (final assay concentration) KRAS G12C, 10 μM (final assay concentration) GDP and 5 nM (final assay concentration) GST-SOS1 are mixed in assay buffer prior to use and kept at room temperature.
AlphaLISA Glutathione Acceptor Beads and AlphaScreen Streptavidin Donor Beads are mixed in assay buffer at a concentration of 10 μg/mL (final assay concentration) each prior to use and kept at room temperature.
Compounds are diluted to a final start concentration of 100 μM and are tested in duplicate. Assay-ready plates (ARPs) are generated using an Access Labcyte Workstation with a Labcyte Echo 550 or 555 accoustic dispenser. For compound a start concentration of 100 μM, 150 nL of compound solution is transferred per well in 11 concentrations in duplicate with serial 1:5 dilutions.
The assay is run using a fully automated robotic system in a darkened room below 100 Lux. 10 μL of KRAS::SOS1 GDP mix is added into columns 1-24 to the 150 nL of compound solution (final dilution in the assay 1:100, final DMSO concentration 1%).
After 30 minutes incubation time 5 μL of bead mix is added into columns 1-23. Plates are kept at room temperature in a darkened incubator. After further 60 minutes incubation, the signal is measured using a PerkinElmer Envision HTS Multilabel Reader using the AlphaScreen specifications from PerkinElmer. Each plate contains the following controls: • diluted DMSO+KRAS::SOS1 GDP mix+bead mix • diluted DMSO+KRAS::SOS1 GDP mix
IC50 values are calculated and analyzed using a 4 parametric logistic model.
Tables of example compounds disclosed herein contain IC50 values determined using the above assay.

[3] = system: NCI-H358 cells; test: NCI-H358 CTG proliferation assay (120 h) (NSCLC); format: cell-based; details: Homo sapiens, read-out: IC50 NCl-H358
Protocol: NCI-H358 CTG Proliferation Assay (120 h) (NSCLC)
NCI-H358 cells (ATCC No. CRL-5807) were dispensed into white bottom opaque 96 well plates (Perkin Elmer cat no. 5680) at a density of 2000 cells per well in 100 μL RPMI-1640 ATCC-Formulation (Gibco # A10491)+10% FCS. Cells were incubated overnight at 37° C. in a humidified tissue culture incubator at 5% CO2. Compounds (10 mM stock in DMSO) were added at logarithmic dose series using the HP Digital Dispenser D300 (Tecan), normalizing for added DMSO. For the TO time point measurement, untreated cells were analyzed at the time of compound addition. Plates were incubated for 120 hours, and cell viability was measured using CellTiter-Glo luminescent cell viability reagent (Promega product code G7570). Viability (stated as percent of control) is defined as relative luminescence units RLU of each well divided by the RLU of cells in DMSO controls. IC50 values were determined from viability measurements by non-linear regression using a four parameter model.

[4] = Plasma protein binding (equilibrium dialysis), mouse plasma; format: in vitro ADME; details: read-out: PPB mouse fu
Protocol: Plasma Protein Binding (PPB)
Binding of test compound to plasma was determined using equilibrium dialysis (ED) and quantitative mass spectrometry interfaced with liquid chromatography (LC-MS). In brief, ED was performed with dialysis devices consisting of two chambers separated by a semipermeable membrane with a molecular weight cut-off of 5-10 kg/mol. One chamber was filled with commercially sourced plasma (mouse and human plasma, respectively) or serum (10% FCS in PBS) containing 1-10 μmol/L test compound and the other chamber was filled with phosphate-buffer saline (PBS) with or without dextran. The dialysis chamber was incubated for 3-5 hours at 37° C. After incubation, protein was precipitated from aliquots of each chamber and the concentration of test compound in the supernatant of the plasma-containing compartment (cplasma) and of the buffer-containing compartment (Cbuffer) was determined by LC-MS. The fraction of unbound test compound (not bound to plasma) (fu) was calculated according to the following equation: […]

[5] = Ba/F3 KRAS G12C cells, 72 h, 10% FCS, uncorrected, read-out: IC50 Ba/F3 KRASG12C
[6] = corrected by plasma protein binding in 10% FCS (fraction unbound), read-out: IC50 Ba/F3 KRASG12C (corrected)

Sequence of Ba/F3 cells bearing a KRAS G12C mutation (P01116 whole entry G12C): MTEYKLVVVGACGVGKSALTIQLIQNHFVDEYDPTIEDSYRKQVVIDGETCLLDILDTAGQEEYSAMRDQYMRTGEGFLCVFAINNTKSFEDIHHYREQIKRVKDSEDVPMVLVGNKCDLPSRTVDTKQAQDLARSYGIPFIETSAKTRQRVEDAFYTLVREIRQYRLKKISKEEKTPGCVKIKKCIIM
T1 sequence (P01116 1-169 isoform P01116-2 G12C/C51S/C80L/C118S): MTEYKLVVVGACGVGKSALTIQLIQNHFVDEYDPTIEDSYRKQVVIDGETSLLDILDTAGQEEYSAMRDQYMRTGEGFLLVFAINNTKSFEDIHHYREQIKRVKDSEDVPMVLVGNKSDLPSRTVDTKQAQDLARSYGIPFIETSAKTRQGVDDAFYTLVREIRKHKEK

Structure (SMILES) | GI50 [1, 5] [nM] | GI50 [1, 6] [nM] | IC50 [2] [nM] | IC50 [3] [nM] | fraction unbound [4]
C=CC(=O)N1CCN(c2cc(O[C@@H](C)[C@@H]3CCCN3C)nc(-c3cc([C@@]4(C)CCCc5sc(N)c(C#N)c54)on3)n2)CC12CC2 [Ib-5] | 3.8 | 0.22 | 3 | 9.68 | 0.004
C=C(F)C(=O)N1CCN(c2cc(O[C@@H](C)[C@@H]3CCCN3C)nc(-c3cc([C@@]4(C)CCCc5sc(N)c(C#N)c54)on3)n2)[C@H](C)C1 [Ib-10] | 13.1 | 0.83 | 13 | 40.6 | 0.005
C=C(F)C(=O)N1[C@@H](C)CN(c2cc(O[C@@H](C)[C@@H]3CCCN3C)nc(-c3cc([C@@]4(C)CCCc5sc(N)c(C#N)c54)on3)n2)C[C@@H]1C [Ib-11] | 12.6 | 0.57 | 15 | 34.6 | 0.003
COC/C=C/C(=O)N1CCN(c2cc(O[C@@H](C)[C@@H]3CCCN3C)nc(-c3cc([C@@]4(C)CCCc5sc(N)c(C#N)c54)on3)n2)[C@H](C)C1 [Ib-14] | 16 | 1.06 | 6 | 19.1 | 0.01
C=CC(=O)N1CCN(c2cc(O[C@@H](C)[C@@H]3CCCN3C)nc(-c3cc([C@@]4(C)CCCc5sc(N)c(C#N)c54)no3)n2)CC12CC2 [Ic-3] | 5.5 | 0.6 | 3 | 24.3 | 
C=CC(=O)N1[C@H](C)CN(c2cc(O[C@@H](C)[C@@H]3CCCN3C)nc(-c3cc([C@@]4(C)CCCc5sc(N)c(C#N)c54)no3)n2)C[C@@H]1C [Ic-5] | 6.7 | 0.99 | 5 | 15.7 | 0.003
C=CC(=O)N1CCC(Oc2cc(N3CCN(C)C[C@@H]3C)nc(-c3cc(C4(C)CCCc5sc(N)c(C#N)c54)no3)n2)CC1 (stereo partly shown) [Ic-7] | 35.3 | 8.9 | 44 | 76.8 | 0.001
C=C(F)C(=O)N1[C@@H](C)CN(c2cc(O[C@@H](C)[C@@H]3CCCN3C)nc(-c3cc([C@@]4(C)CCCc5sc(N)c(C#N)c54)no3)n2)C[C@@H]1C [Ic-8] | 35.6 | 2.78 | 41 | 93.5 | 0.003
COC/C=C/C(=O)N1CCN(c2cc(O[C@@H](C)[C@@H]3CCCN3C)nc(-c3cc(C4(C)CCCc5sc(N)c(C#N)c54)no3)n2)CC1 (stereo partly shown) [Ic-9] | 87 | 22.5 | 29 | 169 | 0.008

Now those with a lower GI50 [1, 5], led by results:

GI50 [1, 5] [nM] | GI50 [1, 6] [nM] | IC50 [2] [nM] | IC50 [3] [nM] | fraction unbound [4] | Structure (SMILES)
1.8 | 0.14 | 1.6 | 1.87 | 0.011 | C=CC(=O)N1CCN(c2cc(O[C@@H](C)[C@@H]3CCCN3C)nc(-c3cc([C@@]4(C)CCCc5sc(N)c(C#N)c54)on3)n2)[C@H](C)C1 [Ib-1]
1.7 | 0.09 | 1.6 | 0.55 | 0.007 | C=CC(=O)N1[C@@H](C)CN(c2cc(O[C@@H](C)[C@@H]3CCCN3C)nc(-c3cc([C@@]4(C)CCCc5sc(N)c(C#N)c54)on3)n2)C[C@@H]1C [Ib-4]
1.6 | 0.27 | 3 | 1.67 | 0.014 | C=CC(=O)N1CCN(c2cc(O[C@@H](C)[C@@H]3CCCN3C)nc(-c3cc(C4(C)CCCc5sc(N)c(C#N)c54)on3)n2)CC1 (stereo partly shown) [Ib-6]
1.8 | 0.15 | 1.9 | 2.49 | 0.011 | C=CC(=O)N1[C@@H](C)CN(c2cc(O[C@@H](C)[C@@H]3CCCN3C)nc(-c3cc([C@@]4(C)CCCc5sc(N)c(C#N)c54)no3)n2)C[C@@H]1C [Ic-4]
0.4 | 0.19 | 1.6 | 0.44 | 0.021 | C=CC(=O)N1CCN(c2cc(O[C@@H](C)[C@@H]3CCCN3C)nc(-c3cc([C@@]4(C)CCCc5sc(N)c(C#N)c54)sn3)n2)CC1 [Id-1]
2 | 0.87 | 1.6 | 2.57 | 0.003 | C=CC(=O)N1[C@H](C)CN(c2cc(O[C@@H](C)[C@@H]3CCCN3C)nc(-c3cc([C@@]4(C)CCCc5sc(N)c(C#N)c54)sn3)n2)C[C@@H]1C [Id-2]
1.3 | 0.48 | 1.7 | 1.09 | 0.005 | C=CC(=O)N1[C@@H](C)CN(c2cc(O[C@@H](C)[C@@H]3CCCN3C)nc(-c3cc([C@@]4(C)CCCc5sc(N)c(C#N)c54)sn3)n2)C[C@@H]1C [Id-4]
